The values that follow come from patent EP4483904A1, “POLYOXOMETALATES AS MEMBRANE CARRIERS” (Universität Wien, priority 2023, dated 2025).

“And” between values parts separate entries of the source, which are not always exact repeats. Equal values may be shown once. Read-outs that look alike come from different tables or passages of the source.

The test system of data set [1] is polyArg. Briefly: Isothermal titration calorimetry, POM into polyArg. It counts as binding. The note with it: 10 mM Mes, pH 5.5, 298.15 K. On the procedure:
(§1) All experiments were performed with a VP-ITC MicroCalorimeter from MicroCal, Int,. at atmospheric pressure and 298.15 K. Solutions were degassed and thermostatic prior the titration experiments in a ThermoVac accessory. A constant volume of POM ([PVW11]^4- or [SiMoW11]^4-) (10 µL per injection) was injected into the oligopeptide solution (heptaArg, protamine, polyArg or heptaLys) in 10 mM Mes, pH 5.5 to determine the apparent binding affinity of [PVW11]^4- and [SiMoW11]^4- with the oligopeptides. Dilution heats were determined by titration of the POM into buffer and subtracted from the reaction heat. The neat reaction heat was fitted with Origin 7.0 software by using the "one-set-of-sites" model to obtain the complex stability constant (Ka) and molar reaction enthalpy (ΔH°). The free energy (ΔG°) and entropy changes (ΔS°) were obtained according to the relation: ΔG° = - R TInKa = ΔH°-TΔS°.
(In general: Isothermal titration calorimetry measures the heat released or taken up as one component is titrated into another.)

Data set [2] is described as follows: Transport experiments in CF-loaded zwitterionic EYPC vesicles (CF fluorescence, Hill analysis). It counts as biochemical. The note with it: for cargo transport in CF-loaded vesicles (qualitative): LUVs loaded with CF, added cargo; for onset for transport activity (carrier concentration): vesicles, Fig. 4. On the procedure:
The dry film was rehydrated with 1 mL buffer (50 mM CF, 10 mM Hepes, pH 7.4 or 50 mM CF, 10 mM Tris, pH 7.4) for 30 min at room temperature, subjected to freeze-thaw cycles (7 times) and extrusions (15 times) through a polycarbonate membrane (pore size 100 nm). Extravesicular components were removed by size exclusion chromatography (NAP-25 column Sephadex G-25 DNA grade) with 10 mM Hepes, 107 mM NaCl, pH 7.4 or 10 mM Hepes, 107 mM NaCl, pH 7.4. Phospholipid concentration was calculated by the Stewart assay. […]
Vesicles stock solutions (5-10 µL) were diluted with the corresponding buffer in a disposable plastic cuvette and gently stirred (total volume 2000 µL, final lipid concentration 13 µM). […] Fluorescence intensities were normalized to fractional emission as: I(t) = (It −I0)/(I∞ −I0) [formula]
Where I0 = It before POM addition and […] = I∞ after lysis. For Hill analysis, It before lysis was defined as transport activity, Y, and plotted against POM concentration, c, and fitted to the Hill equation (2), to afford the activity in absence of POM, Y0, the maximal activity, Ymax, the concentration needed to achieve 50 % of maximal activity, EC50, and the Hill coefficient, n. Y = Y0 + (Ymax −Y0)/(1 + (((EC50)/(c)))^n) [formula]
In the transport measurements, where different carriers (POMs) are tested with the same cargo, the activator efficiency (E) is determined by their capacity to transport the impermeable cargo to the intravesicular region and is characterized by Ymax, its maximal activity, and EC50, the effective activator concentration. An ideal carrier reaches high Ymax at low EC50. To count both factors, the activator efficiency is defined as: E = Ymax (pEC50)/(f) [formula] were pEC50 is the negative logarithm of the EC50, and fa scaling factor, which was set to 20.6 to calibrate the highest (previously known) activation efficiency, E, as 10.
The capability of POMs to act as membrane carriers was explored first in large unilamellar vesicles (LUVs), loaded with carboxyfluorescein (CF). We selected […] representative cationic peptides, heptaarginine (heptaArg), heptalysine (heptaLys), protamine, and polyarginine (polyArg), as test cargos. Inside the LUVs, the CF dye was encapsulated at self-quenching concentrations. With a suitable carrier, heptaArg can be taken up into the vesicles, bind with entrapped CF, and shuttle back to the exterior, spreading the previously quenched CF, and thereby restoring its fluorescence (Fig. 3). In the time-resolved fluorescence experiments, to test whether a POM acts as molecular carrier, the CF emission was continuously monitored during the addition of the inorganic carrier (t = 60 s) and after injection the impermeable heptaArg (t = 120 s). At the end of the experiment (t = 600 s), the surfactant Triton X-100 was added to release all the entrapped CF and allow normalization of the intensity data (Fig. 4a).

Data set [3] relates to oligopeptide (heptaArg, protamine, polyArg or heptaLys). Briefly: Isothermal titration calorimetry, POM-cargo interaction (summary statement). In kind it is binding. The note with it: ITC, POM and cargos. As for the experimental part: as §1
To affect membrane transport, any carrier needs to display an affinity towards the cargo as well as towards the lipid bilayer. Accordingly, the interaction between [PVW11]^4- and [SiMoW11]^4- and the cargos was analyzed by isothermal titration calorimetry (ITC). […] The strong but reversible intermolecular interactions between the low-charged POMs and the cationic peptides established by ITC present an interesting finding. […]

Data set [4] has as its system CHO-K1 cells. Briefly: Cellular viability assay (MTT assay, resazurin readout). The note with it: 10 µM and below, after 24 h. In kind it is cell-based. On the procedure: For MTT assays in presence of activators, CHO-K1 cells were incubated in Ham's F-12 medium containing 10 % fetal bovine serum and 1.0 % penicillin streptomycin at 37 °C in a 5 % CO2 for 24 hours. CHO-K1 cells were dispersed in a 96-well flat bottom tissue culture treated plates (Eppendorf) at density of 5×10^3 cells/well (per 100 µL) and incubated in Ham's F-12 containing 10 % (v/v) fetal bovine serum at 37 °C in a 5 % CO2 incubator for 12 h to allow cell adhesion. Then, cells were incubated with POM, B12Br12^2-, or PyBu (10 µM, 50 µM, 100 µM) for another 24 h. After this incubation time, 20 µL resazurin solution (0.15 mg/mL) was added to cells and incubated for another 3 h. Finally, the plates were read at λem = 590 nm (λex = 560 nm) using a JASCO fluorometer FP-8500.
The cell viability was evaluated by the following equation: Cells viability = (FIsample −FIblank)/(FIcontrol −FIblank) × 100% [formula]
Where, FIsample is the fluorescence intensity of cells incubated with different compounds, FIblank is the fluorescence intensity of medium, and FIcontrol is the fluorescence intensity of cells in absence of any compound.

Setting [5] is: EYPC (zwitterionic), 13 µM phospholipids, 10 µM heptaLys.
Where [6] appears, read: EYPC (zwitterionic), 13 µM phospholipids, 10 µM heptaLys, read-out: EC50.
[7] abbreviates: EYPC vesicles, 0.1 µM polyArg, neutral pH 7.4.
The mark [8] stands for this setting: EYPC vesicles, 0.1 µM polyArg, neutral pH 7.4, read-out: PolyArg EC50.
The mark [9] stands for this setting: EYPC vesicles, 1 µM protamine, neutral pH 7.4.
[10] abbreviates: EYPC vesicles, 1 µM protamine, neutral pH 7.4, read-out: Protamine EC50.
Where [11] appears, read: EYPC vesicles, 10 µM heptaArg, neutral pH 7.4, E = Ymax(pEC50/f), f = 20.6.
Setting [12] is: EYPC vesicles, 10 µM heptaArg, neutral pH 7.4, read-out: HeptaArg EC50.
Where [13] appears, read: EYPC vesicles, 0.1 µM polyArg, acidic pH 5.5.
Setting [14] is: EYPC vesicles, 1 µM Protamine, acidic pH 5.5.

As to K4[α-P^VV^VW^VI11O40]·4H2O [[PVW11]^4-], the “PolyArg Ka/ 10^7” value in data set [1] is 3.5 ± 0.6 10^7 M-1. Further, in data set [2] (setting [5]), the “E (activation efficiency)” value was 4.3 and the Ymax is listed as 62%. The EC50 – broadly, the concentration that produces a half-maximal response – in data set [2] (setting [6]) amounted to 38 µM. In data set [2] (setting [7]), the “PolyArg E (activation efficiency)” value was 8.2 and the “PolyArg Ymax” value turned out to be 88%. The EC50 in data set [2] (setting [8]) worked out at 12 µM. Besides, in data set [2] (setting [9]), the “Protamine E (activation efficiency)” value is 5.9 and the “Protamine Ymax” value was 88%. Further, the EC50 in data set [2] (setting [10]) was 41 µM. Besides, the “HeptaArg E (activation efficiency)” value in data set [2] (setting [11]) is 5.3. Moreover, in data set [2] (setting [12]), the EC50 turned out to be 49 µM. Also, in data set [2], the “cargo transport in CF-loaded vesicles (qualitative)” value is “triggered the desired increase in fluorescence characteristic for cargo transport” and the “onset for transport activity (carrier concentration)” value is on record as “around 1 µM”. The “supramolecular interactions with the cargos (affinity, order of magnitude)” value in data set [3] is listed as ~10^7 M^-1. Also, in data set [4], the viability (usually the share of living cells, or the viability signal relative to a control) is on record as approximately 80%.
For “K4[α-Si^IVMo^VIW^VI11O40]·24H2O [[SiMoW11]^4-]”, the “PolyArg Ka/ 10^7” value in data set [1] is reported as 1.6 ± 0.2 10^7 M-1. In addition, the “E (activation efficiency)” value in data set [2] (setting [5]) is recorded as 4.4. In data set [2] (setting [5]), this substance had a Ymax of 54%. Further, the EC50 in data set [2] (setting [6]) is 22 µM; in data set [2] (EYPC vesicles, 0.1 µM polyArg, acidic pH 5.5, read-out: PolyArg EC50) it was 5 µM; in data set [2] (setting [8]), 13 µM; in data set [2] (EYPC vesicles, 1 µM Protamine, acidic pH 5.5, read-out: Protamine EC50) it was 14 µM; in data set [2] (setting [10]), 19 µM; in data set [2] (setting [12]), 16.5 µM and 17 µM. Further, the “PolyArg E (activation efficiency)” value in data set [2] (setting [13]) was 9.7; in data set [2] (setting [7]) it was 8.6. The “PolyArg Ymax” value in data set [2] (setting [13]) came out at 86%; in data set [2] (setting [7]), 94%. In addition, the entries for the “Protamine E (activation efficiency)” value in data set [2] (setting [14]) and in data set [2] (setting [9]) were 7.3 and 6.0, respectively. For the same substance, the entries for the “Protamine Ymax” value in data set [2] (setting [14]) and in data set [2] (setting [9]) were 80% and 72%, respectively. The “HeptaArg E (activation efficiency)” value came to 6.6 in data set [2] (EYPC vesicles, 10 µM heptaArg, acidic pH 5.5) and 5.7 in data set [2] (setting [11]). Also, the “HeptaArg Ymax” value in data set [2] (EYPC vesicles, 10 µM heptaArg, acidic pH 5.5 (10 mM Mes, 107 mM NaCl)) was determined as 66%; in data set [2] (EYPC vesicles, 10 µM heptaArg, neutral pH 7.4), 66%. Besides, in data set [2], the “cargo transport in CF-loaded vesicles (qualitative)” value is listed as “triggered the desired increase in fluorescence characteristic for cargo transport”. Besides, the “onset for transport activity (carrier concentration)” value in data set [2] is recorded as “around 1 µM”. The “supramolecular interactions with the cargos (affinity, order of magnitude)” value in data set [3] is given as ~10^7 M^-1. Further, the viability in data set [4] is approximately 80%.
